PubChem BioAssay AID1963843 (Molecular Pharmacology Branch, DTP, NCI, 2024)

System: 616215-338-R-J1-PDC complex spheroid viability
Test: Anticancer human tumor 616215-338-R-J1-PDC patient-derived colon adenocarcinoma cell line growth inhibition [POLQ]
Conditions: for IC50: curve of first compound; for viability, T/C: stronger effect = lower value; active means viability on the fitted dose curve at most 10% of control; inactive means the rest
Method in brief: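 Complex spheroid viability model combining PDC tumour cells with endothelial (HUVEC) and MSC stromal cells. Novobiocin, ART-558 or RP6685 were tested singly and in combination with standard and investigational anticancer drugs. Each was titrated in half-log steps from near clinical Cmax, or from 10 microM where Cmax was unknown.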

[1] = second compound 0.0316 µM, first compound 0.0316 µM
[2] = second compound 0.0316 µM, first compound 0.1 µM
[3] = second compound 0.0316 µM, first compound 0.316 µM
[4] = second compound 0.0316 µM, first compound 1 µM
[5] = second compound 0.0316 µM, first compound 3.16 µM
[6] = second compound 0.0316 µM, first compound 10 µM
[7] = second compound 0.1 µM, first compound 0.0316 µM
[8] = second compound 0.1 µM, first compound 0.1 µM
[9] = second compound 0.1 µM, first compound 0.316 µM
[10] = second compound 0.1 µM, first compound 1 µM
[11] = second compound 0.1 µM, first compound 3.16 µM
[12] = second compound 0.1 µM, first compound 10 µM
[13] = second compound 0.316 µM, first compound 0.0316 µM
[14] = second compound 0.316 µM, first compound 0.1 µM
[15] = second compound 0.316 µM, first compound 0.316 µM
[16] = second compound 0.316 µM, first compound 1 µM
[17] = second compound 0.316 µM, first compound 3.16 µM
[18] = second compound 0.316 µM, first compound 10 µM
[19] = second compound 1 µM, first compound 0.0316 µM
[20] = second compound 1 µM, first compound 0.1 µM
[21] = second compound 1 µM, first compound 0.316 µM
[22] = second compound 1 µM, first compound 1 µM
[23] = second compound 1 µM, first compound 3.16 µM
[24] = second compound 1 µM, first compound 10 µM
[25] = second compound 3.16 µM, first compound 0.0316 µM
[26] = second compound 3.16 µM, first compound 0.1 µM
[27] = second compound 3.16 µM, first compound 0.316 µM
[28] = second compound 3.16 µM, first compound 1 µM
[29] = second compound 3.16 µM, first compound 3.16 µM
[30] = second compound 3.16 µM, first compound 10 µM
[31] = second compound 10 µM, first compound 0.0316 µM
[32] = second compound 10 µM, first compound 0.1 µM
[33] = second compound 10 µM, first compound 0.316 µM
[34] = second compound 10 µM, first compound 1 µM
[35] = second compound 10 µM, first compound 3.16 µM
[36] = second compound 10 µM, first compound 10 µM
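Further: spheroids exposed to compounds for one week before readout.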
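Wherever viability, T/C is given: percent viability relative to DMSO vehicle wells taken as 100%.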

C=CC(=O)N1CCN(c2nc(=O)n(-c3c(C)ccnc3C(C)C)c3nc(-c4c(O)cccc4F)c(F)cc23)C(C)C1 (stereo not given) + Nc1ccc(C#CCN(C(=O)Cc2ncc(C(F)(F)F)cc2C(F)(F)F)c2ccc(F)cc2)nn1
inactive: viability, T/C [1] 115% | viability, T/C [2] 99.3% | viability, T/C [3] 96.9% | viability, T/C [4] 99.6% | viability, T/C [5] 89.2% | viability, T/C [6] 66.8% | viability, T/C [7] 103% | viability, T/C [8] 101% | viability, T/C [9] 98.3% | viability, T/C [10] 90.6% | viability, T/C [11] 85.5% | viability, T/C [12] 63.5% | viability, T/C [13] 95.2% | viability, T/C [14] 96.7% | viability, T/C [15] 95.2% | viability, T/C [16] 91% | viability, T/C [17] 78.8% | viability, T/C [18] 62.2% | viability, T/C [19] 96.3% | viability, T/C [20] 95.2% | viability, T/C [21] 96.6% | viability, T/C [22] 94.6% | viability, T/C [23] 84.4% | viability, T/C [24] 67.3% | viability, T/C [25] 92.6% | viability, T/C [26] 89.2% | viability, T/C [27] 97.7% | viability, T/C [28] 93.8% | viability, T/C [29] 85% | viability, T/C [30] 67% | viability, T/C [31] 88.2% | viability, T/C [32] 94.4% | viability, T/C [33] 95.2% | viability, T/C [34] 82.9% | viability, T/C [35] 87.7% | viability, T/C [36] 65.4%
> 10 µM: IC50 (second compound 0.0316 µM) | IC50 (second compound 0.1 µM) | IC50 (second compound 0.316 µM) | IC50 (second compound 1 µM) | IC50 (second compound 3.16 µM) | IC50 (second compound 10 µM)

CC(C)n1c(=O)n(C)c2cnc3cc(F)c(-c4ccc(OCCCN5CCCCC5)nc4)cc3c21 + Nc1ccc(C#CCN(C(=O)Cc2ncc(C(F)(F)F)cc2C(F)(F)F)c2ccc(F)cc2)nn1
inactive: viability, T/C [1] 95% | viability, T/C [2] 92.2% | viability, T/C [3] 103% | viability, T/C [4] 101% | viability, T/C [5] 111% | viability, T/C [6] 103% | viability, T/C [7] 93.2% | viability, T/C [8] 110% | viability, T/C [9] 110% | viability, T/C [10] 89.4% | viability, T/C [11] 103% | viability, T/C [12] 96.4% | viability, T/C [13] 96.8% | viability, T/C [14] 97.5% | viability, T/C [15] 99.5% | viability, T/C [16] 97.1% | viability, T/C [17] 97.7% | viability, T/C [18] 99.2% | viability, T/C [19] 107% | viability, T/C [20] 99.8% | viability, T/C [21] 83.1% | viability, T/C [22] 104% | viability, T/C [23] 97.4% | viability, T/C [24] 86.8% | viability, T/C [25] 112% | viability, T/C [26] 97.8% | viability, T/C [27] 84.7% | viability, T/C [28] 90.6% | viability, T/C [29] 117% | viability, T/C [30] 96.2% | viability, T/C [31] 99.5% | viability, T/C [32] 79.3% | viability, T/C [33] 103% | viability, T/C [34] 103% | viability, T/C [35] 76.9% | viability, T/C [36] 97.5%
> 10 µM: IC50 (second compound 0.0316 µM) | IC50 (second compound 0.1 µM) | IC50 (second compound 0.316 µM) | IC50 (second compound 1 µM) | IC50 (second compound 3.16 µM) | IC50 (second compound 10 µM)

CCc1cc2c(N3CCc4c(cc(Cn5ccnc5)cc4-c4cn(C)nc4C(F)(F)F)C3=O)ccnc2c(OC)n1 + Nc1ccc(C#CCN(C(=O)Cc2ncc(C(F)(F)F)cc2C(F)(F)F)c2ccc(F)cc2)nn1
5.19 µM: IC50 (second compound 0.316 µM)
inactive: viability, T/C [1] 118% | viability, T/C [2] 111% | viability, T/C [3] 95.6% | viability, T/C [4] 56.6% | viability, T/C [5] 54.1% | viability, T/C [6] 49.1% | viability, T/C [7] 117% | viability, T/C [8] 120% | viability, T/C [9] 88.8% | viability, T/C [10] 66.8% | viability, T/C [11] 55.8% | viability, T/C [12] 45.4% | viability, T/C [13] 121% | viability, T/C [14] 113% | viability, T/C [15] 98.9% | viability, T/C [16] 64.7% | viability, T/C [17] 53.6% | viability, T/C [18] 46.9% | viability, T/C [19] 111% | viability, T/C [20] 107% | viability, T/C [21] 94.9% | viability, T/C [22] 56.2% | viability, T/C [23] 63.8% | viability, T/C [24] 37.3% | viability, T/C [25] 115% | viability, T/C [26] 110% | viability, T/C [27] 98% | viability, T/C [28] 70.8% | viability, T/C [29] 56.4% | viability, T/C [30] 40.4% | viability, T/C [31] 100% | viability, T/C [32] 104% | viability, T/C [33] 95.3% | viability, T/C [34] 68.4% | viability, T/C [35] 48.6% | viability, T/C [36] 40.4%
2.69 µM: IC50 (second compound 10 µM)
3.07 µM: IC50 (second compound 1 µM)
6.52 µM: IC50 (second compound 0.1 µM)
4.4 µM: IC50 (second compound 3.16 µM)
> 10 µM: IC50 (second compound 0.0316 µM)

COc1cc2cc(C(=O)CCC(=O)O)sc2cc1OC + Nc1ccc(C#CCN(C(=O)Cc2ncc(C(F)(F)F)cc2C(F)(F)F)c2ccc(F)cc2)nn1
> 10 µM: IC50 (second compound 0.0316 µM) | IC50 (second compound 0.1 µM) | IC50 (second compound 0.316 µM) | IC50 (second compound 1 µM) | IC50 (second compound 3.16 µM) | IC50 (second compound 10 µM)
inactive: viability, T/C [1] 109% | viability, T/C [2] 105% | viability, T/C [3] 110% | viability, T/C [4] 108% | viability, T/C [5] 109% | viability, T/C [6] 102% | viability, T/C [7] 108% | viability, T/C [8] 106% | viability, T/C [9] 117% | viability, T/C [10] 104% | viability, T/C [11] 119% | viability, T/C [12] 108% | viability, T/C [13] 112% | viability, T/C [14] 108% | viability, T/C [15] 105% | viability, T/C [16] 108% | viability, T/C [17] 113% | viability, T/C [18] 99.9% | viability, T/C [19] 110% | viability, T/C [20] 102% | viability, T/C [21] 101% | viability, T/C [22] 113% | viability, T/C [23] 115% | viability, T/C [24] 102% | viability, T/C [25] 108% | viability, T/C [26] 101% | viability, T/C [27] 108% | viability, T/C [28] 103% | viability, T/C [29] 107% | viability, T/C [30] 101% | viability, T/C [31] 95.3% | viability, T/C [32] 91.1% | viability, T/C [33] 86.8% | viability, T/C [34] 97.2% | viability, T/C [35] 89.3% | viability, T/C [36] 79.2%

COc1ccc([C@@H](O)c2cc(-c3ncnc4cc(N5CCOCC5)ccc34)c(F)cc2Cl)nn1 + Nc1ccc(C#CCN(C(=O)Cc2ncc(C(F)(F)F)cc2C(F)(F)F)c2ccc(F)cc2)nn1
inactive: viability, T/C [1] 90.8% | viability, T/C [2] 106% | viability, T/C [3] 96% | viability, T/C [4] 93% | viability, T/C [5] 95.8% | viability, T/C [6] 61.9% | viability, T/C [7] 90.6% | viability, T/C [8] 115% | viability, T/C [9] 106% | viability, T/C [10] 94% | viability, T/C [11] 92.3% | viability, T/C [12] 47.7% | viability, T/C [13] 97.4% | viability, T/C [14] 92.1% | viability, T/C [15] 96.9% | viability, T/C [16] 107% | viability, T/C [17] 90.3% | viability, T/C [18] 52.7% | viability, T/C [19] 107% | viability, T/C [20] 118% | viability, T/C [21] 94.5% | viability, T/C [22] 87.2% | viability, T/C [23] 94.4% | viability, T/C [24] 49.8% | viability, T/C [25] 113% | viability, T/C [26] 109% | viability, T/C [27] 93.7% | viability, T/C [28] 85.7% | viability, T/C [29] 77.7% | viability, T/C [30] 47.9% | viability, T/C [31] 103% | viability, T/C [32] 99.9% | viability, T/C [33] 88.7% | viability, T/C [34] 76.5% | viability, T/C [35] 45.8% | viability, T/C [36] 50%
> 10 µM: IC50 (second compound 0.0316 µM) | IC50 (second compound 0.316 µM) | IC50 (second compound 1 µM) | IC50 (second compound 3.16 µM)
9.54 µM: IC50 (second compound 0.1 µM)
4.73 µM: IC50 (second compound 10 µM)
